# Experimental data taken from patent US20180298053A1, “ANTIBIOTIC OLIGOPEPTIDES” (priority 2017, published 2018).
# Where a name gives a salt, the structure may show the parent alone. Square brackets hold non-standard residues; d marks the D form. Peptide text beside a SMILES is read from it. * marks the point of attachment. ξ: configuration not given here. ξF = NC(Cc1ccccc1)C(=O)O; NHOH = ON*
# Test system: E. coli (ATTC 8739)
# Test: Zone of inhibition test
# Type: cell-based
# Conditions: at 12.5 μg, FIG. 1B
# Method: Compound A was tested against L-phenylalanine-(S)-2-amino-N-hydroxy-4-(methylthio)butanamide hydrochloride (Example 3) in a side-by-side comparison in a conventional zone of inhibition test. In this test, both compounds were compared at various concentrations against E. coli (ATTC 8739) grown in a Petri dish using the antibiotic kanamycin as a control.
smiles,measurement,value
"CSCC[C@H](NC(=O)C(N)Cc1ccccc1)C(=O)NO (stereo partly drawn) [Example 3, L-phenylalanine-(S)-2-amino-N-hydroxy-4-(methylthio)butanamide Hydrochloride] (H-[ξF]-Met-{NHOH})",strength of zone of inhibition compared with cpd. A at 50 μg,substantially stronger
